Data as given in paper PMC9290507, “Rh^II‐Catalyzed De‐symmetrization of Ethane‐1,2‐dithiol and Propane‐1,3‐dithiol Yields Metallo‐β‐lactamase Inhibitors” (Chemmedchem, 2021).

Key:
VIM‐2 = target: T1, VIM‐2 (Escherichia coli, UniProt Q5U7L7); assay: Kd determination using isothermal titration calorimetry; assay type: binding; details: ITC, 250 μM compound into 50 μM VIM-2, 25 °C; for Kd: inset of Figure 6
T1 construct: made in house
Protocol: The next step was the investigation of the binding thermodynamics of 3 a, 3 o, and 3 s. For these experiments we used a closely related enzyme VIM‐2 which is an isoform of VIM‐1 and can be recombinantly expressed in very high concentrations, suitable tor isothermal titration calorimetry (ITC) experiments (Figure 6).
VIM‐2 expression and purification was published elsewhere.[19] Before the measurement the VIM‐2 protein was dialyzed against 500 times the volume of buffer (50 mM Tris, 500 mM NaCl, 5 % (v/v) glycerol with a pH=8) using a dialysis membrane with a 3.5 kDa MWCO. For the measurements the compounds 3 a, 3 o, or 3 s, respectively, were diluted using the dialyses buffer to a final concentration of 250 μM containing a final DMSO concentration of 1 %. The VIM‐2 protein was diluted to a final concentration of 50 μM, supplemented with 1 % DMSO using the dialysis buffer and pure DMSO. For the control measurements dialysis buffer was supplemented with pure DMSO to a final concentration of 1 %. The measurements were performed using an “Affinity ITC” (TA‐Instruments) in reversed mode, with a stir rate of 75 rpm and a temperature of 25 °C. The VIM‐2 was placed in the cell and the respective compound in the syringe. For blank measurements either the protein or compound dilution were exchanged with buffer containing 1 % DMSO. For the measurements of 3 a and 3 s one time 0.5 μl was injected followed by 50 injections of 2 μl with a spacing of 240 s. 3 o was measured with one injection of 0.5 μl followed by 35 injections of 2 μl with a spacing of 240 s. The data were analyzed using the “NanoAnalyze Data Analysis” software (version 3.10.0; TA‐Instruments).

NDM‐1 = target: T2, NDM‐1 (Klebsiella pneumoniae, UniProt C7C422); assay: Fluorescence-based enzyme activity assay (Fluorocillin), NDM-1; assay type: biochemical; details: for Effect of added zinc ions on inhibitory activity (NDM-1): 10 μM compound, additional 100 μM ZnCl2 in assay buffer
T2 construct: made in house
Protocol: (§1) In order to investigate the structure‐activity relationships of the dithiol library, we measured the inhibitory activity of 3 a–x in a fluorescence‐based enzyme activity assay (Table 1). Two relevant β‐lactamase isoforms, NDM‐1 and VIM‐1 were selected for in vitro assays. The fluorogenic substrate fluorocillin[15] was prepared according to literature and its conversion was monitored as described previously.[6] In general, a linear relationship between the potency of 3 a–x towards both enzymes could be observed, however, inhibitory potency towards VIM‐1 was almost tenfold higher (Figure 3). A very clear preference for the propane‐1,3‐dithiol over ethane‐1,2‐dithiol compounds could be observed from matched molecular pairs.
(§2) Activity assays for MBLs were performed at room temperature in black polystyrol 96well plates (Corning, Corning, NY, USA) using dicefalotinodifluorofluorescein (Fluorocillin) as a substrate. Proteins were diluted in assay buffer (HEPES 50 mM, pH 7.5 containing 0.01 %Triton X‐100), with final protein concentrations of NDM‐1: 3 nM, or VIM‐1: 4 nM. Samples were supplemented with an equimolar amount of ZnCl2. An amount of 1 μL of compounds 3 a–3 x at different concentrations was incubated with 89 μL of enzyme in assay buffer. After an incubation period of 30 min at room temperature, 10 μL of Fluorocillin substrate was added to yield the final assay volume of 100 μL. Final concentration of DMSO was 1 %. The fluorescence emitted by the fluorescent product difluorofluorescein was monitored every 45 s for 30 cycles using a Tecan fluorescent plate reader (Infinite 200; excitation at 495 nm and emission at 525 nm) and was compared with a standard curve. The rate of the enzymatic reaction was obtained by dividing the quantity of the fluorescent product (RFU) by time (min). Negative controls were measured in the absence of enzyme, whereas the positive controls were measured in the presence of enzyme and in the absence of inhibitors. The inhibitory effect of each substance was measured in triplicate in three independent experiments. IC50 values were calculated using data obtained from measurements with at least eight different inhibitor concentrations, applying a sigmoidal dose–response (variable slope with four parameters) equation using GraphPad Prism 5 (GraphPad Software, La Jolla, CA, USA) software. In order to investigate the inhibitory activity of 3 a, 3 o, or 3 s in the presence of a high Zn^2+ concentration, assay buffer containing an additional 100 μM ZnCl2 was used. The assay was performed as described above with NDM‐1 or VIM‐1 and 10 μM of 3 a, 3 o, or 3 s.

E. coli NDM‐1 (T2359) [1] = assay: Intrinsic antimicrobial activity (MIC, CLSI microdilution), E. coli NDM-1; assay type: cell-based; details: for MIC: Escherichia coli; for Intrinsic antimicrobial activity: compound alone, E. coli transformants producing NDM-1 or VIM-1 (Table 2)
Protocol: (§3) Minimal inhibitory concentrations (MICs) of imipenem monohydrate (Sigma‐Aldrich)±compound 3 a, 3 o, or 3 s against transformed E. coli strains producing NDM‐1 or VIM‐1 were determined according to microdilution method established by Clinical and Laboratory Standards Institute (CLSI).^20 The checkerboard assay was performed to test for synergy in vitro. The microtiter‐plates were set up with serial doubling dilutions of compound 3 a, 3 o, or 3 s (2‐128 mg/L) and imipenem (0.125‐128 mg/L).

VIM‐1 = target: T3, VIM‐1 (Pseudomonas aeruginosa, UniProt A0A0F7KYQ8); assay: Fluorescence-based enzyme activity assay (Fluorocillin), VIM-1; assay type: biochemical; details: for Effect of added zinc ions on inhibitory activity (VIM-1): 10 μM compound, additional 100 μM ZnCl2 in assay buffer
T3 construct: made in house
Protocol: as §1, §2

E. coli VIM‐1 (T2544) [2] = assay: Checkerboard synergy assay with imipenem, E. coli VIM-1; assay type: cell-based; details: for Imipenem MIC: E. coli VIM-1 (T2544); for Reduction of the MIC of imipenem: VIM-1 producing bacteria, maximal reduction
Protocol: (§4) To investigate this, the MIC of imipenem or combined with various concentrations of compound 3a, 3o, or 3 s was determined against E. coli transformants producing NDM‐1 or VIM‐1 (Table 3 and 4).
as §3

E. coli NDM‐1 (T2359) [3] = assay: Checkerboard synergy assay with imipenem, E. coli NDM-1; assay type: cell-based; details: for Imipenem MIC: E. coli NDM-1 (T2359); for Reduction of the MIC of imipenem: NDM-1 producing bacteria, maximal reduction
Protocol: as §4, §3

E. coli VIM‐1 (T2544) [4] = assay: Intrinsic antimicrobial activity (MIC, CLSI microdilution), E. coli VIM-1; assay type: cell-based; details: Escherichia coli
Protocol: as §3

T2 sequence (C7C422 29-270, looked up, species assumed): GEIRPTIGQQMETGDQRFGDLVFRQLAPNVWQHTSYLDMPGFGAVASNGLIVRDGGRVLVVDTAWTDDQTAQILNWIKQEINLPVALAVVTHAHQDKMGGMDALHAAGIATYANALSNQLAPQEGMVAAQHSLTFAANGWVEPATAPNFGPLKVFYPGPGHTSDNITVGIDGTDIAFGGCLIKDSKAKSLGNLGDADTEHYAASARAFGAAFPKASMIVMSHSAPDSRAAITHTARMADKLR

| SMILES | ΔH (VIM‐2) [kcal/mol] | Kd (VIM‐2) [nM] | IC50 (NDM‐1) [nM] | Effect of added zinc ions on inhibitory activity (NDM-1) (NDM‐1) | MIC (E. coli NDM‐1 (T2359) [1]) [µg/mL] | Intrinsic antimicrobial activity (E. coli NDM‐1 (T2359) [1]) | IC50 (VIM‐1) [nM] | Effect of added zinc ions on inhibitory activity (VIM-1) (VIM‐1) | Imipenem MIC (E. coli VIM‐1 (T2544) [2]; +2 μg/ml compound) [µg/mL] | Imipenem MIC (E. coli VIM‐1 (T2544) [2]; +4 μg/ml compound) [µg/mL] | Imipenem MIC (E. coli VIM‐1 (T2544) [2]; +8 μg/ml compound) [µg/mL] | Imipenem MIC (E. coli VIM‐1 (T2544) [2]; +16 μg/ml compound) [µg/mL] | Imipenem MIC (E. coli VIM‐1 (T2544) [2]; +32 μg/ml compound) [µg/mL] | Imipenem MIC (E. coli VIM‐1 (T2544) [2]; +64 μg/ml compound) [µg/mL] | Imipenem MIC (E. coli VIM‐1 (T2544) [2]; +128 μg/ml compound) [µg/mL] | Reduction of the MIC of imipenem (E. coli VIM‐1 (T2544) [2]) [fold] | Imipenem MIC (E. coli NDM‐1 (T2359) [3]; +2 μg/ml compound) [µg/mL] | Imipenem MIC (E. coli NDM‐1 (T2359) [3]; +4 μg/ml compound) [µg/mL] | Imipenem MIC (E. coli NDM‐1 (T2359) [3]; +8 μg/ml compound) [µg/mL] | Imipenem MIC (E. coli NDM‐1 (T2359) [3]; +16 μg/ml compound) [µg/mL] | further results |
| --- | --- | --- | --- | --- | --- | --- | --- | --- | --- | --- | --- | --- | --- | --- | --- | --- | --- | --- | --- | --- | --- |
| O=C1C(SCCCS)CCN1c1ccccc1 (centres unmarked) [3 o, 3‐((3‐Mercaptopropyl)thio)‐1‐phenylpyrrolidin‐2‐one] | -11.7 | 534 | 300 ± 40 | does not impair the inhibitory activity | > 512 | no intrinsic antimicrobial activity | 20 | does not impair the inhibitory activity | 16 | 16 | 16 | 16 | 8 | 2 | 1 | ≤ 32 | 128 | 128 | 128 | 128 | Imipenem MIC (E. coli NDM‐1 (T2359) [3]; +32 μg/ml compound): 32 µg/mL; Imipenem MIC (E. coli NDM‐1 (T2359) [3]; +64 μg/ml compound): 32 µg/mL; Imipenem MIC (E. coli NDM‐1 (T2359) [3]; +128 μg/ml compound): 16 µg/mL; Reduction of the MIC of imipenem (E. coli NDM‐1 (T2359) [3]): up to 8 fold; MIC (E. coli VIM‐1 (T2544) [4]): > 512 µg/mL |
| O=C1C(SCCCS)CCN1c1nccs1 (centres unmarked) [3 s, 3‐((3‐Mercaptopropyl)thio)‐1‐(thiazol‐2‐yl)pyrrolidin‐2‐one] | -6.45 | 166 | 390 ± 50 | does not impair the inhibitory activity | > 512 | no intrinsic antimicrobial activity | 40 ± 10 | does not impair the inhibitory activity | 32 | 16 | 16 | 16 | 8 | 4 | 2 | ≤ 32 | 128 | 128 | 64 | 64 | Imipenem MIC (E. coli NDM‐1 (T2359) [3]; +32 μg/ml compound): 64 µg/mL; Imipenem MIC (E. coli NDM‐1 (T2359) [3]; +64 μg/ml compound): 32 µg/mL; Imipenem MIC (E. coli NDM‐1 (T2359) [3]; +128 μg/ml compound): 16 µg/mL; Reduction of the MIC of imipenem (E. coli NDM‐1 (T2359) [3]): up to 8 fold; MIC (E. coli VIM‐1 (T2544) [4]): > 512 µg/mL |
